Reference: patent publication US20250020635A1, “ASSAY METHODS AND USES THEREOF FOR SCREENING ALZHEIMER'S DISEASE TREATMENT COMPOUNDS” (priority 2023, published 2025)
Read-outs that look alike come from different tables or passages of the source.

Key:
[1] = test system: HMC3 cells; assay: Microglial phagocytosis/cell health high-content assay, HMC3 cells; assay type: cell-based; conditions: 24-hr treatment
[2] = test system: HMC3 cells; assay: as above; assay type: cell-based; conditions: 60 μM, 48 hrs, compared to control
Protocol: (§1) The assay introduced here is a simplified cellular imaging assay without any fixation and washing steps, while producing multiparameter measurements with high capacity using a 384-well plate format. The assay procedures include plating cells on day 1, incubating cell plates overnight before treating cells on day 2, adding pHrodo™-myelin/membrane debris to cell plates on day 3, and 20 hr later, staining cell nuclei with Hoechst-33342 for 30 min before performing high-content imaging on day 4. Three selected parameters are measured from cells: 1) mean total fluorescence intensity per cell of pHrodo™-myelin/membrane debris in phagocytosis vesicles to quantify phagocytosis; 2) cell counts per well to quantify treatment effects on proliferation and cell death; and 3) average nuclear intensity to quantify treatment-induced nuclear changes such as in apoptosis. The assay has been used on HMC3 cells (an immortalized human microglial cell line), BV2 cells (an immortalized mouse microglial cell line), and primary microglia isolated from mouse brains. For initial assay attempts, we recommend using HMC3 cells available from the ATCC.
(§2) All collected raw data are normalized to the untreated control with following formula: % of control=100×(X−Min)/(Max−Min). Factors in the formula are: X is raw data from a treated well, Max is an average measurement from pHrodo™-myelin seeded but untreated wells, and Min is an average measurement from no pHrodo™-myelin untreated wells. Normalized data are used for curve fitting that is done with the variable slope (four parameters) using the Prism software.
(§3) To ensure that the measurements reflect the steady state of compound treatment effects and cell health, the assay was set with a total compound treatment time of 48 hr, including pHrodo™-myelin/membrane debris seeding performed 20-24 hr after compound addition. […] Among many available quantitative measurements from the image analysis, we selected three parameters for the assay:
(§4) 1) The mean total intensity of phagocytosis vesicles/cell—to measure phagocytosis. There are multiple parameters generated from the image analysis, including phagocytosis vesicle area, number, and various fluorescence intensity measurements. Comparing these parameters, the total fluorescence intensity of vesicles/cell is the most sensitive one and was chosen for quantifying phagocytosis.
(§5) 2) The total cell counts—to measure overall cell viability, which is affected by proliferation and cell death. We chose to take 4 images/well (with the 10× objective lens) that cover about 50% of the total area of a well in a 384-well plate to represent cell count of the well.
(§6) 3) The average nuclear intensity—to measure drug-induced apoptosis, with high signal indicating nuclear condescension (a sign of early apoptosis) and low signal indicating DNA degradation (a sign of later apoptosis, when activated caspases digest DNA).
(§7) A phenotypic high-content imaging assay with simultaneous measurements of phagocytosis, cell number, and nuclear intensity was used to assess both cellular pharmacology and cell health. Model cell lines BV2 (immortalized mouse microglia, a gift from Dr. Michelle Block's laboratory at IUSM) and HMC3 (immortalized human microglia, obtained from ATCC, CRL-3304) were used to provide adequate throughput. Cells were cultured in DMEM GlutaMax media (ThermoFisher) containing 10% FBS and Pen-Strep in a 37° C. 5% CO2 incubator, plated in Corning Falcon 384 well Optilux Black and clear bottom plates: 400 cells/45 μl/well (BV2 cells), 600 cells/45 μl/well (HMC3 cells) and 2000 cell/45 μl/well (primary cells), and treated with 10× serially diluted compounds (60 μM-3 nM) for 48 hrs at 37° C. […]

[3] = Kinetic solubility in pH 7.4 phosphate buffer; assay type: physicochemical
Protocol: (§8) Physicochemical and ADME properties were determined using the following assays: microsomal stability intrinsic clearance (Clint) in mouse liver microsomal solution, MDCK permeability (Papp), protein binding (fu) in mouse plasma, and kinetic solubility in pH 7.4 phosphate buffer (Table 7).

[4] = test system: MDCK; assay: MDCK permeability; assay type: in vitro ADME; conditions: estimate of intestinal absorption
Protocol: as §8

[5] = test system: BV2 cells; assay: Microglial phagocytosis/cell health high-content assay, BV2 cells; assay type: cell-based; conditions: 60 μM, 48 hrs, compared to control
Protocol: as §1, §2, §3, §4, §5, §6, §7

[6] = test system: HiBit only; assay: Cellular thermal shift assay (CETSA), HiBit only control; assay type: cell-based, human; conditions: for HiBit only %, percent luminescence at highest dose with HiBit only compared to control (DMSO): 100 μM; for HiBit only % @100 μM: Table 1
[7] = molecular target: T1, PLCγ2-HiBit (Homo sapiens, UniProt P16885); assay: Cellular thermal shift assay (SplitLuc CETSA), PLCγ2-HiBit in HMC3 cells; assay type: cell-based; conditions: for PLCγ2-HiBit %, percent luminescence at highest dose compared to control (DMSO): 100 μM; for PLCy2-HiBit % @100: Table 1
T1 construct: expressed in transfected cells; host or cells: HMC3 cells
T1 sequence (P16885 1-1265): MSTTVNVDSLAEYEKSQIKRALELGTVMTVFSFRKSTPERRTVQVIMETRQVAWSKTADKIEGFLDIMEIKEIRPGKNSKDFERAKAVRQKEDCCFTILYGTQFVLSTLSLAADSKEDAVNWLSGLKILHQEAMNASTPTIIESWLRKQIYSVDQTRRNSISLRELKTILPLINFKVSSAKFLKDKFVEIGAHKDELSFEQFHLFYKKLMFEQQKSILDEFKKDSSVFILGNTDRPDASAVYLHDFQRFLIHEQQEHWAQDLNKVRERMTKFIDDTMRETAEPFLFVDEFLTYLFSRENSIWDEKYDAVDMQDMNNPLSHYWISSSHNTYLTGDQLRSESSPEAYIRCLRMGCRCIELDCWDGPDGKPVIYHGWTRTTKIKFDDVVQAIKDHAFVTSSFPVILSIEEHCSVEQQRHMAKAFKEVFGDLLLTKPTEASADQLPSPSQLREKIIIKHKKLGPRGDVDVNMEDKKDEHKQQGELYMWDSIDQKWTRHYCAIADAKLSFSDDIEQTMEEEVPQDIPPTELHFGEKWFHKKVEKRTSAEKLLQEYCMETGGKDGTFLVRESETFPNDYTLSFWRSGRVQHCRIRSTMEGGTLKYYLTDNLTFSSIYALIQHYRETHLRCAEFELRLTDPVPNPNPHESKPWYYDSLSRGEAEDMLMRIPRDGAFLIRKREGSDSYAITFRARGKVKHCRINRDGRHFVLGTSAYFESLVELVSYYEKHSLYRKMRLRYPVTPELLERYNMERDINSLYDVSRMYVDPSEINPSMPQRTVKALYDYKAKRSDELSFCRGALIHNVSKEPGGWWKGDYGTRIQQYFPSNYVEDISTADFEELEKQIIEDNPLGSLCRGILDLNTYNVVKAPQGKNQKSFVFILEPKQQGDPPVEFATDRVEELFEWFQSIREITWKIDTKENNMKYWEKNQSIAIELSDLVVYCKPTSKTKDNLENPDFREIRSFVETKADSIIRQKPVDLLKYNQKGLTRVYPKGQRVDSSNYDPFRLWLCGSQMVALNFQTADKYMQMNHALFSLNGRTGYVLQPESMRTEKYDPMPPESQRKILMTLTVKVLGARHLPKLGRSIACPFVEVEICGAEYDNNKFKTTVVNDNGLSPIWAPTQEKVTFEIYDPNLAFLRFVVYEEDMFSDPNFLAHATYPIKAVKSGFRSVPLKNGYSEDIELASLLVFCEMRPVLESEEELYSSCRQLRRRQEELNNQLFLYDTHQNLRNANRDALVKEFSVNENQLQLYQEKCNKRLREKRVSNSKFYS
Excerpt: These compounds have been evaluated using a wide variety of assay classes namely target engagement utilizing cellular thermal shift assay (CETSA),^34 affinity selection mass spectrometry (ASMS),^35 biochemical activity employing the fluorogenic probe XY-69,^36 and cellular activity testing for phagocytosis. Cellular Thermal Shift Assays (CETSA) assess cellular target engagement by quantifying changes in protein thermal stability upon ligand binding to endogenous proteins in intact cells.^34 For SAR studies, a split Nano Luciferase (SplitLuc CETSA) version of the assay was utilized to provide sufficient throughput.^37,38 HMC3 cells were stably transfected with PLCγ2-HiBit to enable protein expression in a physiologically relevant cellular context. The thermal stability of this HiBit-labeled protein in intact cells was measured in the following two formats. In the initial screen, using 96-well plates, cells were treated with FBS analogs at a single concentration (100 μM) at 37° C. for 60 min and then exposed to a 3-minute isothermal heating step at 45.9° C. (experimentally determined Tm of PLCγ2-HiBit). Luminescence detection was then conducted with the Nano-Glo HiBit Lytic detection kit (Promega, Cat. N3040).^38 Compound treatment was performed in triplicate, and raw signals were normalized to the mean of the controls (in the same plate) as % of control. When the difference in compound-treated cells >control mean+3SD, the compound was considered positive and selected for further testing with dose-response CETSA. In the dose response CETSA, cells were treated with decreasing concentrations from 100 μM with 1:3 serial dilutions to generate an 8-point curve. An AC50 was calculated with the % of control data using a four-parameter logistic curve regression model, and the percent luminescence remaining at the highest concentration is also reported for the compounds when the difference from the DMSO control is greater than 3× the standard deviation (SD). Otherwise, an AC50 was not calculated.

[8] = Protein binding in mouse plasma; assay type: in vitro ADME
Protocol: as §8

[9] = Microsomal stability intrinsic clearance; assay type: in vitro ADME; conditions: mouse liver microsomes
Protocol: as §8

[10] = molecular target: T2, His-PLCγ2 protein (Homo sapiens, UniProt P16885); assay: Affinity selection mass spectrometry (ASMS); assay type: binding; conditions: dose range 100-0.05 μM, PLCγ2 400 nM
T2 sequence (P16885 1-1265): T1 sequence (P16885 1-1265)
Protocol: Using a dose range of 100-0.05 μM in 384 well low-volume polypropylene microtiter plates, a solution of PLCγ2 (final concentration 400 nM) was transferred to biochip arrays functionalized with a Tris-Ni-NTA-presenting self-assembled monolayer to immobilize the His-tagged protein. The arrays were incubated for 90 min in a humidified chamber to prevent evaporation and allow for specific immobilization of the His-PLCγ2 protein, along with any bound small molecules. The arrays were purified by a rapid <3 second gentle wash step with deionized ultra-filtered water and dried with compressed air. ASMS was performed using the reflector positive mode on an Aβ Sciex TOF-TOF 5800 System (Aβ Sciex, Framingham, MA).

Row | SMILES | IC50 ([1]; read-out: cell count (inhibition of cell proliferation) IC50) [nM] | EC50 ([1]; read-out: increase of nuclear intensity EC50) [nM] | IC50 ([1]; read-out: inhibition of phagocytosis IC50) [nM] | Ave. % Cell Count @ 60 uM HMC3 cells [2] [%] | Ave. % Phagocytosis @ 60 uM HMC3 cells [2] [%] | Kinetic solubility [3] [µM] | Papp, MDCK permeability [4] | Ave. % Cell Count @ 60 uM BV2 cells [5] [%] | Ave. % Phagocytosis @ 60 uM BV2 cells [5] [%] | HiBit only %, percent luminescence at highest dose with HiBit only compared to control (DMSO) [6] [%] | HiBit only % @100 μM [6] [%] | PLCγ2-HiBit %, percent luminescence at highest dose compared to control (DMSO) [7] [%] | PLCy2-HiBit % @100 [7] [%] | fu, fraction unbound [8] | Clint, intrinsic clearance [9] [µL/min/mg] | target engagement, signal against background [10]
1 | C=C1[C@@H](C)[C@H]2[C@H](Cc3ccccc3)NC(=O)[C@]23[C@H](OC(C)=O)/C=C/[C@@](C)(O)C(=O)[C@@H](C)C/C=C/[C@H]3[C@@H]1O [Cytochalasin D] | 367 | 488 | 138 |  |  |  |  |  |  |  |  |  |  |  |  | 
2 | Cc1cc(C)c(S(=O)(=O)Nc2cccc(C(F)F)c2)c(C)c1 [Compound 7] |  |  |  | 6 | 0 | 41 to 60 | 37.4 ×10−^6 cm/s | 2 | 0 | 104 | 104 | 78 | 78 |  |  | 
3 | Cc1cc(C)c(S(=O)(=O)Nc2cccc(C#N)c2)c(C)c1 [Compound 3] |  |  |  | 79 | 111 | 81 to 100 | 69.8 ×10−^6 cm/s | 85 | 113 |  |  | 96 | 96 | 0.0003 |  | 
4 | O=S(=O)(Nc1cccc(C(F)(F)F)c1)c1ccccc1 [Compound 4] |  |  |  | 84 | 89 | >100 | 79.7 ×10−^6 cm/s | 95 | 106 | 82 | 82 | 65 | 65 |  | 607.66 | 
5 | Nc1ncnc2c1ncn2[C@@H]1O[C@H](COP(=O)(O)OP(=O)(O)OP(=O)(O)O)[C@@H](O)[C@H]1O [ATP] |  |  |  |  |  |  |  |  |  |  |  |  |  |  |  | clear separation from background signal
